The target in series [1] is T1, recombinant human ACC2 (rhACC2) (Homo sapiens, UniProt O00763, V2141I).
T1 construct: made in house; host or cells: CHO cells, tetracycline-induced (pcDNA5 FRT TO-TOPO)
The series can be described thus: Transcreener ADP detection FP assay, recombinant human ACC2 inhibition. The following applies: recombinant human ACC2, 50 μM ATP; read-out: Transcreener Assay hACC2 IC50. It is filed as biochemical.

For series [2], the system named is sebum production. Put plainly: Effect on sebum levels in healthy human volunteers (Sebumeter, Sebutape lipid classes). The settings on record: 200 mg BID oral, 14 days. The series is classed as in vivo. On the procedure: Otherwise healthy overweight or obese subjects were admitted to the Clinical Research Institute and dosed orally with Example 1 (200 mg BID) or placebo for 14 consecutive days. On two days pre-treatment and days 13 and 14 (post-treatment) of the study, sebum production was assessed by Sebumeter® measurements and sebum was collected for lipid component identification and quantification. In order to prepare the area of the skin where the Sebumeter® measurements and the sebum collection will be performed, the skin surface has to be cleansed from any lipids and debris. The targeted area on the forehead and the cheeks were gently blotted using an oil-absorbing tissue or gauze. After blotting, wipes or gauze pads presoaked in 70% ethanol solution were used to wipe the forehead and cheeks. Following cleansing, the skin was allowed to dry and sebum measurements were made using a clean, calibrated Sebumeter® SM 815 (Courage+Khazaka, Köln, Germany) in accordance with the manufactures directions at 5 minutes and 3 hours post-cleansing. Sebum levels determined by Sebumeter® are expressed as relative change from pre-treatment baseline for subjects treated with placebo and Example 1 and are presented in FIG. 4. The Sebutape® technique was used for sebum collection. At approximately 9 AM, following facial cleansing and the 5 minute post-cleanse sebumeter measurement, 4 Sebutape® strips were applied: 2 patches placed right and left on the forehead cranial of the middle line of the eye and 2 patches on the cheeks caudal of the middle line of the eye. The Sebutape® was peeled from its backing paper using defatted forceps and affixed to the surface with gentle pressure to assure adequate adhesion. Surgical gloves were to be worn by the person handling the tape. After 1 hour, the 4 patches were removed; the 2 left patches and the 2 right patches were placed in acid-washed, Teflon-capped screw-cap vials. Sebum lipid species were quantified from the Sebutape® samples by Metabolon using their TrueMass® technology platform. Analysis of these sebum samples enabled assessment of the effect of Example 1 vs. placebo on individual sebum lipid classes. […] Individual subject level and box plots depicting means with confidence intervals are shown for sebum triglycerides, wax esters, and free fatty acids (FIG. 5).

The test system of series [3] is de novo lipogenesis (DNL). The series can be described thus: Suppression of DNL in healthy human volunteers. The settings on record: dose-dependent. It is filed as in vivo.
For series [4] the following is noted: in vivo.
In series [5] the target is T2, CYP1A2 (Homo sapiens, UniProt P05177).
T2 sequence (P05177 1-516): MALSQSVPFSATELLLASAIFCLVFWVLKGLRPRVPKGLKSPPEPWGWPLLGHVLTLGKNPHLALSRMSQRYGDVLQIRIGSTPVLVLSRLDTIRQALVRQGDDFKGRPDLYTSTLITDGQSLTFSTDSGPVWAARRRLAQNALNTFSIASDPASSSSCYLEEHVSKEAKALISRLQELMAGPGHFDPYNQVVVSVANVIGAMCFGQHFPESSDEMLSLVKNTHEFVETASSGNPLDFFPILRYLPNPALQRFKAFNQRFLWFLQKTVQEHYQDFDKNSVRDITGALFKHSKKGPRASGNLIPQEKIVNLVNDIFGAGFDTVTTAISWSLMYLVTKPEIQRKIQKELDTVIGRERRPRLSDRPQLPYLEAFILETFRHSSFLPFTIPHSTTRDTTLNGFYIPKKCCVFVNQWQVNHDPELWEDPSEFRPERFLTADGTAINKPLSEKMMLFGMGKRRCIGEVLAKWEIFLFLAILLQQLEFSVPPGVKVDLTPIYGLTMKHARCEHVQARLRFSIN
The series can be described thus: biochemical.

Series [6] concerns ear skin malonyl-CoA. The series can be described thus: Ear skin malonyl-CoA levels in Syrian hamsters. The settings on record: topical 100 mg/ml (5 ul/ear), single dose, one hour after treatment. The series is classed as in vivo, Syrian hamster. The procedure: Male Syrian gold Hamster at ˜10 weeks were maintained adlibitum on standard hamster chow and water. Example 3 for topical delivery was prepared as a solution in a vehicle consisting of 70:30 (Ethanol:propylene glycol) at a concentration of 100 mg/ml. Topical administration of a single dose (5 ul/ear) was applied to hamster ears with a pipette (2-10 ul) tip adhering to 2 minute intervals following the dosing order. The dosing timing allowed for the formulation to spread evenly over an approximate 1 sq cm area and absorb/dry prior to returning the animal to the cage. […] One hour after dose administration animals were sacrificed by CO2 asphyxiation.
Briefly, ear skin samples were prepared for malonyl-CoA analysis in the following manner. One 8 mm distal biopsy punch (using a 8 mm diameter Sklar Tru-punch—Sklar Instruments) (2 per animal) was taken just above the anatomical “V” in the aural cartilage to normalize sample area. The punch was then split into 2 layers (anterior and posterior). […]
Frozen tissues were homogenized in 1 mL of 5% ice cold trichloroacetic acid using a polytron in a 2 mL polypropylene centrifuge tube. […] Tissue malonyl-CoA levels were determined by LCMS by the Metabolomics Laboratory Sanford-Burnham Medical Research Institute (Orlando, […]). Hamster ear skin malonyl-CoA levels were expressed as the percent of the vehicle control and are plotted in FIG. 6.

“And” between values parts separate entries of the source, which are not always exact repeats. Equal entries are not always repeated.

A word on the IC50: it is the midpoint of a concentration-inhibition curve.

T1 sequence (O00763 whole entry V2141I): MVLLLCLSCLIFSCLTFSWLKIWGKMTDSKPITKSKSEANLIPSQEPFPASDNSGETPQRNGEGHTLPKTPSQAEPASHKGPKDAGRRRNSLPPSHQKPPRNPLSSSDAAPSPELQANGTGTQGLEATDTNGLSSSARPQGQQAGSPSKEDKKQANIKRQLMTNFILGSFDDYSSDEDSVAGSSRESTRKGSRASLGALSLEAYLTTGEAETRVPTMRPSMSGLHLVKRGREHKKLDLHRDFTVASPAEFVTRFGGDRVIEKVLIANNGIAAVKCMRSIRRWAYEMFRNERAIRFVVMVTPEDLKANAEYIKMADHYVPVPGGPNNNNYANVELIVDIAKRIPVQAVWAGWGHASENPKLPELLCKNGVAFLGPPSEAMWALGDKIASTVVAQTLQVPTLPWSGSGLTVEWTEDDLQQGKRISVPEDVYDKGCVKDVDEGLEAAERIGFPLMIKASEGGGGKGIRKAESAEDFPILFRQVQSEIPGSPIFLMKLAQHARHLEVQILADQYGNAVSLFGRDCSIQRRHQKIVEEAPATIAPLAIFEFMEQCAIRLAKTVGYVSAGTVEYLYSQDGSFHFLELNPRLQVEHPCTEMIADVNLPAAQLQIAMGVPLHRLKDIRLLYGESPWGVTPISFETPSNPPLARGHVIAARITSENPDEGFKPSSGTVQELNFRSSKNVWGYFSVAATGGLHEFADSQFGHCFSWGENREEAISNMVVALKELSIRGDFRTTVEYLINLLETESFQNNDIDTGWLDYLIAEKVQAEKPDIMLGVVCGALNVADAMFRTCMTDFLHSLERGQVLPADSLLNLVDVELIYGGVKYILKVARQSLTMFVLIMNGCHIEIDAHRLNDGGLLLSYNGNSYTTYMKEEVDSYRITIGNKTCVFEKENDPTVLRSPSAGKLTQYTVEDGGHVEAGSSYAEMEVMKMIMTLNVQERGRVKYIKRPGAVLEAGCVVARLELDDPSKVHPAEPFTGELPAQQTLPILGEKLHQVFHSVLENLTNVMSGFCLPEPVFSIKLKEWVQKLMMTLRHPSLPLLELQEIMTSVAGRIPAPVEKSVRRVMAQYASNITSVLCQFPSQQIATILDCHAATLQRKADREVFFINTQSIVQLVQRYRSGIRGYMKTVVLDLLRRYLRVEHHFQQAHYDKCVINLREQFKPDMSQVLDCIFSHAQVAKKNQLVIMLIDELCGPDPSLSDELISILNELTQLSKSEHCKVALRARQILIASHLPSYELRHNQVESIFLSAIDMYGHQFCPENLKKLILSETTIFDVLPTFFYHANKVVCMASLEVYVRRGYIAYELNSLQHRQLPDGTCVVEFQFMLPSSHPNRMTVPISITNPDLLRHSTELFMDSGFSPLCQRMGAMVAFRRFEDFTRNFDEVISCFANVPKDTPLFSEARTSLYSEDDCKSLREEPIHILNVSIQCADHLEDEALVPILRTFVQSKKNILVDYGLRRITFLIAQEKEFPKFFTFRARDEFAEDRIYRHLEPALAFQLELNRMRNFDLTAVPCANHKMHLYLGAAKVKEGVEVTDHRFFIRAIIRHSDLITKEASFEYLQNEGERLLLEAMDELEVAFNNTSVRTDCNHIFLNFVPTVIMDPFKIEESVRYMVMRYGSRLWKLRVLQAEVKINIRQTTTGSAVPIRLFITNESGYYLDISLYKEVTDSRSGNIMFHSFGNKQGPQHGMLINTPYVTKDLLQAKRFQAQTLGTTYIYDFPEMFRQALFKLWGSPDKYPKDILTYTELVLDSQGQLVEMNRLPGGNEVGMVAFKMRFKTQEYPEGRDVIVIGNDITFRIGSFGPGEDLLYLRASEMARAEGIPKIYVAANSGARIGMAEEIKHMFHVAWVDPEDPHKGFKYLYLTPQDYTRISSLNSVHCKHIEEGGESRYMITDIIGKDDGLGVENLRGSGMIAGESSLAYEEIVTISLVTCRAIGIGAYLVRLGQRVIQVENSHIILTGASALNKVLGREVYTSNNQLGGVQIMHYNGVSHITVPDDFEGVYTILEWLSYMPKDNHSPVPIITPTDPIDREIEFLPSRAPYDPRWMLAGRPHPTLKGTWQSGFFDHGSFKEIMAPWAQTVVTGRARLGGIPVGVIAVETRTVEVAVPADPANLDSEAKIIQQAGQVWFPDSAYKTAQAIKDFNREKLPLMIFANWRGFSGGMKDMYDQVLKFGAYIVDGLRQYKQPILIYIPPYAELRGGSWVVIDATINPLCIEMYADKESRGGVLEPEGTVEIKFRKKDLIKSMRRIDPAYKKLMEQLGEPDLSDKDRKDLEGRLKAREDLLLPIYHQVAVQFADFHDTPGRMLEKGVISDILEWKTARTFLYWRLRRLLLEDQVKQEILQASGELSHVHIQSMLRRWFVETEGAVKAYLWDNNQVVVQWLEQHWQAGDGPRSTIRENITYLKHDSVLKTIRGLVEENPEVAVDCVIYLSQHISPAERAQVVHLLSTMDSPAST

With `Cc1nc2ccc(C(=O)N3CCC4(CC3)CC(=O)c3c(cnn3C(C)C)C4)cc2[nH]1` [Example 1, 1-isopropyl-1′-(2-methyl-1H-benzo[d]imidazole-5-carbonyl)-4,6-dihydrospiro[indazole-5,4′-piperidin]-7(1H)-one], the IC50 in series [1] amounted to 45 nM. Further, in series [2], the “sebum free cholesterol change relative to PBO” value is “no change” and the “sebum squalene levels, increase relative to PBO” value is listed as 2.6 fold. In series [2] (PBO adjusted), the “reduction of sebum production by Sebumeter from baseline” value is 49% and > 49%. Also, in series [2] (Sebutape), the “reduction of sebum free fatty acids relative to placebo” value is recorded as “approximately 49%” and the “reduction of sebum wax esters relative to placebo” value was about 53%. Further, in series [2] (Sebutape, PBO adjusted), the “decrease of sebum triglycerides” value worked out at 66%. Besides, in series [2] (vs. placebo), the “levels of sebum free fatty acids (in words)” value is on record as “reduced” and the “levels of sebum wax esters (in words)” value is recorded as “reduced”. Further, the “suppression of DNL in healthy human volunteers” value in series [3] is given as “up to 80%”. Besides, in series [4], the “exposures (AUC and Cmax) vs. dose” value was “increased dose-proportionally”. Besides, in series [4] (po), the “effect of food on absorption” value was “modestly decreased the rate but not the extent”; the “frequency of adverse events vs. dose and duration” value is “no dose- or duration-related increase”. The molecule further displayed an IC50 in series [5] of over 30000 nM.

Consider `CC(C)n1ncc2c1C(=O)CC1(CCN(C(=O)c3ccc4ccc(N)nc4c3)CC1)C2` [Example 3, 1′-(2-aminoquinoline-7-carbonyl)-1-isopropyl-4,6-dihydrospiro[indazole-5,4′-piperidin]-7(1H)-one], for which the “suppression of hamster ear skin malonyl-CoA relative to vehicle” value in series [6] amounted to 87%.
